The record followed here is ChEMBL document CHEMBL1158875, “Plakinidine D, a new pyrroloacridine alkaloid from two ascidians of the genus Didemnum” (J Nat Prod, 1997).

The source made the active and inactive calls. The calls are words filed in the database; no cut-off is given here.

This assay has as its system HCT-116. Description: Cytotoxicity against human HCT116 cells at 5 ug/mL. The assay is classed as functional, cell-based.

For `Nc1c2c(c3nc4ccccc4c4c3c1N=C4)NCCC2=O`, the result was Active.
